From PubChem BioAssay (NCI)
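Interpolation was linear, between the two tested concentrations surrounding the appropriate level; five concentrations were tested over 48 hours in 96-well plates. TGI: total growth inhibition.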

Experiments:
Experiment in all cases: NCI tumour cell line growth inhibition, 48 h
[1] = tested on: 786-0 renal
[2] = tested on: A498 renal
[3] = tested on: A549 NSCLC
[4] = tested on: ACHN renal
[5] = tested on: CAKI-1 renal
[6] = tested on: CCRF-CEM leukemia
[7] = tested on: COLO 205 colon
[8] = tested on: DLD-1 colon
[9] = tested on: DMS 114 small cell lung
[10] = tested on: DMS 273 small cell lung
[11] = tested on: EKVX NSCLC
[12] = tested on: HCC-2998 colon
[13] = tested on: HCT-116 colon
[14] = tested on: HCT-15 colon
[15] = tested on: HL-60(TB) leukemia
[16] = tested on: HOP-18 NSCLC
[17] = tested on: HOP-62 NSCLC
[18] = tested on: HOP-92 NSCLC
[19] = tested on: HT29 colon
[20] = tested on: IGROV1 ovarian
[21] = tested on: K-562 leukemia
[22] = tested on: KM12 colon
[23] = tested on: KM20L2 colon
[24] = tested on: LOX IMVI melanoma
[25] = tested on: LXFL 529 NSCLC
[26] = tested on: M14 melanoma
[27] = tested on: M19-MEL melanoma
[28] = tested on: MALME-3M melanoma
[29] = tested on: MOLT-4 leukemia
[30] = tested on: NCI-H226 lung
[31] = tested on: NCI-H23 lung
[32] = tested on: NCI-H460 lung
[33] = tested on: OVCAR-3 ovarian
[34] = tested on: OVCAR-5 ovarian
[35] = tested on: OVCAR-8 ovarian
[36] = tested on: RPMI-8226 leukemia
[37] = tested on: RXF 393 renal
[38] = tested on: SF-268 CNS
[39] = tested on: SF-295 CNS
[40] = tested on: SF-539 CNS
[41] = tested on: SK-MEL-2 melanoma
[42] = tested on: SK-MEL-28 melanoma
[43] = tested on: SK-MEL-5 melanoma
[44] = tested on: SK-OV-3 ovarian
[45] = tested on: SN12C renal
[46] = tested on: SNB-19 CNS
[47] = tested on: SNB-75 CNS
[48] = tested on: SNB-78 CNS
[49] = tested on: SW-620 colon
[50] = tested on: TK-10 renal
[51] = tested on: UACC-257 melanoma
[52] = tested on: UACC-62 melanoma
[53] = tested on: XF 498 CNS
[54] = tested on: NCI-H522 lung
[55] = tested on: OVCAR-4 ovarian
[56] = tested on: U251 CNS

Measured: TGI

CN(/N=C/c1cccc2cccnc12)c1ccc([N+](=O)[O-])cc1
not listed: [54] | [55] | [56]
> 100 µM: all other assays above

CC(=O)c1ccc2c(ccc(=O)n2C)c1
not listed: [4] | [37] | [48] | [51]
> 100 µM: all other assays above
